Where “and” joins values, the source holds several entries; their conditions need not be identical. Equal entries are not always repeated.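 Assay format: 96-well plates, 48-hour exposure. GI50 = concentration required for 50% inhibition of growth. TGI: concentration producing complete growth inhibition.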 Calls of active or inactive are those of the source. No stated cut-off is given here; in the data, active means GI50 below about 0.43 µM; inactive means the rest.
Assays:
Assay in all cases: growth of human tumour cells (NCI), 48 h
[1] = tested on: CAKI-1 renal
[2] = tested on: HCC-2998 colon
[3] = tested on: SW-620 colon
[4] = tested on: EKVX NSCLC
[5] = tested on: DMS 273 small cell lung
[6] = tested on: RXF 393 renal
[7] = tested on: UO-31 renal
[8] = tested on: KM12 colon
[9] = tested on: U251 CNS
[10] = tested on: SF-268 CNS
[11] = tested on: MALME-3M melanoma
[12] = tested on: SK-MEL-28 melanoma
[13] = tested on: HOP-62 NSCLC
[14] = tested on: HCT-116 colon
[15] = tested on: SK-MEL-2 melanoma
[16] = tested on: TK-10 renal
[17] = tested on: SF-539 CNS
[18] = tested on: HOP-18 NSCLC
[19] = tested on: CCRF-CEM leukemia
[20] = tested on: HT29 colon
[21] = tested on: K-562 leukemia
[22] = tested on: SN12C renal
[23] = tested on: A498 renal
[24] = tested on: SK-MEL-5 melanoma
[25] = tested on: HL-60(TB) leukemia
[26] = tested on: NCI-H522 lung
[27] = tested on: COLO 205 colon
[28] = tested on: DMS 114 small cell lung
[29] = tested on: IGROV1 ovarian
[30] = tested on: SNB-78 CNS
[31] = tested on: MOLT-4 leukemia
[32] = tested on: NCI-H23 lung
[33] = tested on: ACHN renal
[34] = tested on: UACC-62 melanoma
[35] = tested on: UACC-257 melanoma
[36] = tested on: NCI-H226 lung
[37] = tested on: OVCAR-8 ovarian
[38] = tested on: OVCAR-3 ovarian
[39] = tested on: SNB-19 CNS
[40] = tested on: RXF-631 renal
[41] = tested on: 786-0 renal
[42] = tested on: OVCAR-5 ovarian
[43] = tested on: HCT-15 colon
[44] = tested on: NCI-H460 lung
[45] = tested on: HOP-92 NSCLC
[46] = tested on: A549 NSCLC
[47] = tested on: LOX IMVI melanoma
[48] = tested on: LXFL 529 NSCLC
[49] = tested on: SNB-75 CNS
[50] = tested on: SF-295 CNS
[51] = tested on: SK-OV-3 ovarian
[52] = tested on: OVCAR-4 ovarian
[53] = tested on: M14 melanoma
[54] = tested on: KM20L2 colon
[55] = tested on: RPMI-8226 leukemia
[56] = tested on: M19-MEL melanoma
[57] = tested on: XF 498 CNS
[58] = tested on: SR leukemia
[59] = tested on: DLD-1 colon

## c1ccc2c(c1)[O][Sn][O]2
[1]
  GI50: 30.2 µg/mL
  TGI: > 150 µg/mL
[2]
  GI50: 81.5 µg/mL
  TGI: > 150 µg/mL
[3]
  GI50: 69 µg/mL
  TGI: > 150 µg/mL
[4]
  GI50: > 150 µg/mL
  TGI: > 150 µg/mL
[5]
  GI50: 10.4 µg/mL
  TGI: > 150 µg/mL
[6]
  GI50: 23.4 µg/mL
  TGI: 120 µg/mL
[7]
  GI50: 12.6 µg/mL
  TGI: > 150 µg/mL
[8]
  GI50: 21.8 µg/mL
  TGI: > 150 µg/mL
[9]
  GI50: > 150 µg/mL
  TGI: > 150 µg/mL
[10]
  GI50: 25.1 µg/mL
  TGI: > 150 µg/mL
[11]
  GI50: 90.9 µg/mL
  TGI: > 150 µg/mL
[12]
  GI50: 81.8 µg/mL
  TGI: > 150 µg/mL
[13]
  GI50: 36.1 µg/mL
  TGI: > 150 µg/mL
[14]
  GI50: 19.8 µg/mL
  TGI: > 150 µg/mL
[15]
  GI50: 92.6 µg/mL
  TGI: > 150 µg/mL
[16]
  GI50: 101 µg/mL
  TGI: > 150 µg/mL
[17]
  GI50: 26.2 µg/mL
  TGI: > 150 µg/mL
[18]
  outcome: inactive
[19]
  GI50: 1.12 µg/mL
  TGI: > 150 µg/mL
[20]
  GI50: 95.4 µg/mL
  TGI: > 150 µg/mL
[21]
  GI50: 91.6 µg/mL
  TGI: > 150 µg/mL
[22]
  GI50: 41.8 µg/mL
  TGI: > 150 µg/mL
[23]
  GI50: 41.2 µg/mL
  TGI: > 150 µg/mL
[24]
  GI50: 20.7 µg/mL
  TGI: > 150 µg/mL
[25]
  GI50: 1.55 µg/mL
  TGI: 6.37 µg/mL
[26]
  GI50: 2.03 µg/mL
  TGI: 8.78 µg/mL
[27]
  GI50: > 150 µg/mL
  TGI: > 150 µg/mL
[28]
  GI50: 8.87 µg/mL
  TGI: > 150 µg/mL
[29]
  GI50: 24.3 µg/mL
  TGI: > 150 µg/mL
[30]
  GI50: > 150 µg/mL
  TGI: > 150 µg/mL
[31]
  GI50: 7.16 µg/mL
  TGI: > 150 µg/mL
[32]
  GI50: 21.3 µg/mL
  TGI: 113 µg/mL
[33]
  GI50: 24.1 µg/mL
  TGI: > 150 µg/mL
[34]
  GI50: 35.5 µg/mL
  TGI: > 150 µg/mL
[35]
  GI50: > 150 µg/mL
  TGI: > 150 µg/mL
[36]
  GI50: 69.5 µg/mL
  TGI: > 150 µg/mL
[37]
  GI50: 45.3 µg/mL
  TGI: > 150 µg/mL
[38]
  GI50: 10.9 µg/mL
  TGI: > 150 µg/mL
[39]
  GI50: 61.5 µg/mL
  TGI: > 150 µg/mL
[40]
  outcome: inactive
[41]
  GI50: 23.6 µg/mL
  TGI: > 150 µg/mL
[42]
  GI50: > 150 µg/mL
  TGI: > 150 µg/mL
[43]
  GI50: 20.6 µg/mL
  TGI: > 150 µg/mL
[44]
  GI50: 46 µg/mL
  TGI: > 150 µg/mL
[45]
  GI50: 64.8 µg/mL
  TGI: > 150 µg/mL
[46]
  GI50: 11 µg/mL
  TGI: > 150 µg/mL
[47]
  GI50: 27.8 µg/mL
  TGI: 112 µg/mL
[48]
  outcome: inactive
[49]
  GI50: 100 µg/mL
  TGI: > 150 µg/mL
[50]
  GI50: > 150 µg/mL
  TGI: > 150 µg/mL
[51]
  GI50: > 150 µg/mL
  TGI: > 150 µg/mL
[52]
  GI50: 102 µg/mL
  TGI: > 150 µg/mL
[53]
  GI50: 57.3 µg/mL
  TGI: > 150 µg/mL
[54]
  outcome: inactive
[55]
  GI50: 7.54 µg/mL
  TGI: > 150 µg/mL

## CC1CCC2c3c([nH]c4ccccc34)C3C(=O)N(c4ccccc4)C(=O)C3C2C1 (configuration not stated)
[1]
  TGI: > 250 µM
[2]
  TGI: > 250 µM
[3]
  TGI: > 250 µM
[4]
  TGI: > 250 µM
[6]
  TGI: 33.7 µM
[7]
  GI50: 117 µM
  TGI: > 250 µM
[8]
  TGI: > 250 µM
[9]
  GI50: 37.5 µM
  TGI: > 250 µM
[10]
  GI50: 165 µM
  TGI: 97.9 µM and > 250 µM
[11]
  TGI: 215 µM
[12]
  TGI: > 250 µM
[13]
  TGI: 92 µM
[14]
  TGI: > 250 µM
[15]
  TGI: 91.4 µM
[16]
  GI50: 45.5 µM
  TGI: 67.5 µM and 181 µM
[17]
  GI50: 34 µM
  TGI: 27.6 µM and > 250 µM
[18]
  TGI: 69.9 µM
[19]
  GI50: 194 µM
  TGI: 42 µM and > 250 µM
[56]
  TGI: > 250 µM
[20]
  TGI: > 250 µM
[21]
  GI50: 54.8 µM
  TGI: 202 µM
[22]
  TGI: > 250 µM
[25]
  TGI: > 250 µM
[57]
  TGI: 7.55 µM
[26]
  TGI: > 250 µM
[58]
  GI50: > 250 µM
  TGI: > 250 µM
[29]
  GI50: 38.2 µM
  TGI: 57 µM and 130 µM
[30]
  GI50: 35.2 µM
  TGI: 42.2 µM and > 250 µM
[31]
  GI50: 44.7 µM
  TGI: 95.5 µM and 99.1 µM
[32]
  GI50: 30.3 µM
  TGI: > 250 µM
[33]
  GI50: 47.9 µM
  TGI: 224 µM
[34]
  GI50: 22.7 µM
  TGI: 82.2 µM and > 250 µM
[35]
  TGI: > 250 µM
[36]
  GI50: 62.3 µM
  TGI: 96.4 µM and 161 µM
[37]
  GI50: > 250 µM
  TGI: > 250 µM
[38]
  GI50: > 250 µM
  TGI: > 250 µM
[59]
  TGI: > 250 µM
[39]
  GI50: 69.2 µM
  TGI: > 250 µM
[40]
  TGI: > 250 µM
[41]
  GI50: 77.6 µM
  TGI: 40.6 µM and > 250 µM
[43]
  TGI: > 250 µM
[44]
  TGI: > 250 µM
[45]
  TGI: 56.8 µM
[46]
  GI50: > 250 µM
  TGI: > 250 µM
[47]
  GI50: 153 µM
  TGI: > 250 µM
[48]
  TGI: > 250 µM
[49]
  GI50: 12.1 µM
[50]
  GI50: 66.3 µM
  TGI: > 250 µM
[51]
  GI50: 13.2 µM
  TGI: 28.5 µM and 99.6 µM
[52]
  TGI: > 250 µM
[53]
  GI50: 160 µM
  TGI: > 250 µM
[54]
  TGI: > 250 µM
